In ChEMBL document CHEMBL3352694, “Structure-activity relationships (SAR) and structure-kinetic relationships (SKR) of bicyclic heteroaromatic acetic acids as potent CRTh2 antagonists I” (Bioorg Med Chem Lett, 2014):
Each block holds one molecule with its values, some of them ahead of it.

Assays:
[1] = Antagonist activity at CRTh2 receptor in human eosinophil assessed as inhibition of PGD2-induced cell shape change
[2] = molecular target: T1, Prostaglandin D2 receptor 2 (Homo sapiens) (UniProt Q9Y5Y4); details: CHO-K1
T1 sequence (whole entry): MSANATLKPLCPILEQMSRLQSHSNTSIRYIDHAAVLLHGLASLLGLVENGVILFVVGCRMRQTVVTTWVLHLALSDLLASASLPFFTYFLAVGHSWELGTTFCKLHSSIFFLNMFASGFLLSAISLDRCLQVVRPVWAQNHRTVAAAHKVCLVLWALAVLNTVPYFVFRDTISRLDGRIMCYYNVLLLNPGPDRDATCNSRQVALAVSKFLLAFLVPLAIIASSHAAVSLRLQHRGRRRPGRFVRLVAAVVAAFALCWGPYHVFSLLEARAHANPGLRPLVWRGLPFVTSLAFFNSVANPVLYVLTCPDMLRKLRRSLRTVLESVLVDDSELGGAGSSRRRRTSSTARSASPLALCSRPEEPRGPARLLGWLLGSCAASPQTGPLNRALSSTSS
Description: Binding affinity to CRTh2 receptor (unknown origin) overexpressed in CHOK1 cell membranes assessed as dissociation half life at 10 X IC50 preincubated for 1 hr followed [35S]-GTPgammaS addition measured after 2 hrs by liquid scintillation counting analysis

[3] = Dissociation constant, acidic pKa of the compound by potentiometric assay; format: physicochemical
[4] = Dissociation constant, basic pKa of the compound by potentiometric assay; format: physicochemical
[5] = Thermodynamic solubility in pH 1.0 buffer after 24 hrs at 37 degC; format: physicochemical; details: read-out: Therm_solubility
[6] = Thermodynamic solubility in pH 7.4 buffer after 24 hrs at 37 degC; format: physicochemical; details: read-out: Therm_solubility
[7] = molecular target: T2, Prostaglandin D2 receptor 2 (Homo sapiens, UniProt Q9Y5Y4); test: Antagonist activity at CRTh2 receptor (unknown origin) overexpressed in CHOK1 cell membranes assessed as inhibition of [35S]-GTPgammaS binding at 1 to 5 uM preincubated for 1 hr followed by 50 nM PGD2 and 0.1 nM [35S]-GTPgammaS addition measured after 2 hrs by liquid scintillation counting analysis relative to control; format: functional, CHO-K1
T2 sequence (Q9Y5Y4 whole entry): T1 sequence (whole entry)

[8] = Apparent permeability of the compound at 20 uM incubated at 20 degC for 5 hrs in 2% DMSO containing PBS buffer solution by PAMPA assay; format: physicochemical
[9] = Lipophilicity, log D of the compound at pH 7.4 by shake flask method; format: physicochemical; details: buffer
[10] = Permeability of the compound assessed as mass balance at 20 uM incubated at 20 degC for 5 hrs in 2% DMSO containing PBS buffer solution by PAMPA assay; format: ADME; details: read-out: Activity
[11] = Drug metabolism in rat liver microsomes at 5 uM in presence of NADPH after 30 mins at 37 degC; format: ADME; details: read-out: Drug metabolism
[12] = Drug metabolism in rat liver microsomes assessed as phase-2 metabolism measured by glucuronidation level at 5 uM in presence of UDPGA after 2 hrs at 37 degC; format: ADME; details: read-out: Drug metabolism
[13] = Cmax in rat at 1 mg/kg; format: ADME, organism-based; parameters: dose 1 mg/kg; details: in vivo
[14] = AUC (0 to infinity) in rat at 1 mg/kg; format: ADME, organism-based; parameters: time infinity, dose 1 mg/kg; details: plasma
[15] = Clearance in rat at 1 mg/kg; format: ADME, organism-based; parameters: dose 1 mg/kg; details: in vivo
[16] = Volume of distribution at steady state in rat at 1 mg/kg; format: ADME, organism-based; parameters: dose 1 mg/kg; details: in vivo, read-out: Vdss
[17] = Terminal half life in rat at 1 mg/kg; format: ADME, organism-based; parameters: dose 1 mg/kg; details: in vivo, read-out: beta t1/2 (converted)
[18] = Mean residence time in rat at 1 mg/kg; format: ADME, organism-based; parameters: dose 1 mg/kg; details: in vivo
[19] = Oral bioavailability in rat at 10 mg/kg; format: ADME, organism-based; details: in vivo
[20] = Drug metabolism in human liver microsomes at 5 uM in presence of NADPH after 30 mins at 37 degC; format: ADME; details: read-out: Drug metabolism
[21] = Drug metabolism in human liver microsomes assessed as phase-2 metabolism measured by glucuronidation level at 5 uM in presence of UDPGA after 2 hrs at 37 degC; format: ADME; details: read-out: Drug metabolism

IC50 [1]: 84 nM
Compound: CCN(Cc1cc(C(F)(F)F)ccc1-n1cc(CC(=O)O)c2ccccc21)C(=O)C1CC1

T1/2 [2]: 1.5 h
Compound: CCN(Cc1cc(C(F)(F)F)ccc1-c1cc(CC(=O)O)c2ccncn12)C(=O)C1CC1

pKa [3]: 2.5 | pKa [4]: 5.6 | solubility thermodynamic at 24 h [5]: > 1000 µg/mL | solubility thermodynamic at 24 h [6]: > 1000 µg/mL
Compound: CCN(Cc1cc(C(F)(F)F)ccc1-c1cn(CC(=O)O)c2cccnc12)C(=O)C1CC1

IC50 [7]: 48 nM | T1/2 [2]: 1.4 h
Compound: CCN(Cc1cc(C(F)(F)F)ccc1-c1cc(CC(=O)O)cc2cnn(C)c12)C(=O)C1CC1

IC50 [7]: 82 nM | pKa [3]: 3 | pKa [4]: 4.8 | solubility thermodynamic at 24 h [5]: > 1000 µg/mL | T1/2 [2]: 0.7 h
Compound: CCN(Cc1cc(C(F)(F)F)ccc1-c1nc(CC(=O)O)c2ccccn12)C(=O)C1CC1

IC50 [7]: 123 nM | T1/2 [2]: 0.2 h
Compound: CCN(Cc1cc(C(F)(F)F)ccc1-c1cc(CC(=O)O)c2ccnn2c1)C(=O)C1CC1

solubility thermodynamic at 24 h [5]: < 1 µg/mL | solubility thermodynamic at 24 h [6]: > 1000 µg/mL | Papp at 5 h, 20 µM [8]: 0.6 ×10⁻⁶ cm/s | logD [9]: 1.4 | recovery at 5 h, 20 µM [10]: 71% | metabolised at 0.5 h, 5 µM [11]: < 5% | metabolised at 2 h, 5 µM [12]: 32% | Cmax [13]: 571 ng/mL | AUC(0-inf) [14]: 559 ng·h/mL | clearance [15]: 30 mL/min/kg | Vd [16]: 2.9 L/kg | half-life [17]: 1.5 h | MRT [18]: 1.6 h | bioavailability [19]: 46% | T1/2 [2]: 4 h
Compound: CCN(Cc1cc(C(F)(F)F)ccc1-c1cn(CC(=O)O)c2ccccc12)C(=O)C1CC1

IC50 [7]: 262 nM
Compound: CCN(Cc1cc(C(F)(F)F)ccc1-c1cc(CC(=O)O)c2cccn2c1)C(=O)C1CC1

pKa [3]: 3.7 | pKa [4]: 1.7 | solubility thermodynamic at 24 h [5]: > 1000 µg/mL | solubility thermodynamic at 24 h [6]: > 1000 µg/mL | IC50 [1]: 1.4 nM
Compound: CCN(Cc1cc(C(F)(F)F)ccc1-c1cc(CC(=O)O)n2cccnc12)C(=O)C1CC1

IC50 [7]: 16 nM | Papp at 5 h, 20 µM [8]: 1.5 ×10⁻⁶ cm/s | logD [9]: 0.6 | recovery at 5 h, 20 µM [10]: 91% | metabolised at 0.5 h, 5 µM [20]: < 5% | metabolised at 2 h, 5 µM [12]: 21% | metabolised at 2 h, 5 µM [21]: 28% | Cmax [13]: 1530 ng/mL | AUC(0-inf) [14]: 2420 ng·h/mL | clearance [15]: 6.9 mL/min/kg | Vd [16]: 2 L/kg | half-life [17]: 5.9 h | MRT [18]: 4.7 h
Compound: CCN(Cc1cc(C(F)(F)F)ccc1-c1cc(CC(=O)O)ccc1OC)C(=O)C1CC1

IC50 [7]: 247 nM
Compound: CCN(Cc1cc(C(F)(F)F)ccc1-c1cc(CC(=O)O)cn2nccc12)C(=O)C1CC1

IC50 [7]: 398 nM
Compound: CCN(Cc1cc(C(F)(F)F)ccc1-c1cc(CC(=O)O)cn2cnnc12)C(=O)C1CC1

IC50 [7]: 159 nM | T1/2 [2]: 0.7 h
Compound: CCN(Cc1cc(C(F)(F)F)ccc1-c1cc(CC(=O)O)cn2ccnc12)C(=O)C1CC1

IC50 [7]: 48 nM | T1/2 [2]: 1.2 h
Compound: CCN(Cc1cc(C(F)(F)F)ccc1-c1cc(CC(=O)O)cc2cn(C)nc12)C(=O)C1CC1

pKa [3]: 2.4 | pKa [4]: 4.2 | solubility thermodynamic at 24 h [5]: > 1000 µg/mL | solubility thermodynamic at 24 h [6]: > 1000 µg/mL | Papp at 5 h, 20 µM [8]: 1.1 ×10⁻⁶ cm/s | logD [9]: 0.5 | recovery at 5 h, 20 µM [10]: 80% | metabolised at 2 h, 5 µM [12]: 6% | Cmax [13]: 926 ng/mL | AUC(0-inf) [14]: 885 ng·h/mL | clearance [15]: 19 mL/min/kg | Vd [16]: 3.9 L/kg | half-life [17]: 5.3 h | MRT [18]: 3.4 h
Compound: CCN(Cc1cc(C(F)(F)F)ccc1-n1cc(CC(=O)O)c2cccnc21)C(=O)C1CC1

pKa [3]: 2.8 | solubility thermodynamic at 24 h [5]: < 1 µg/mL | solubility thermodynamic at 24 h [6]: > 1000 µg/mL | Papp at 5 h, 20 µM [8]: 0.18 ×10⁻⁶ cm/s | logD [9]: 0.8 | recovery at 5 h, 20 µM [10]: 81% | metabolised at 0.5 h, 5 µM [11]: < 5% | metabolised at 0.5 h, 5 µM [20]: < 5% | metabolised at 2 h, 5 µM [12]: 12% | metabolised at 2 h, 5 µM [21]: 35% | Cmax [13]: 550 ng/mL | AUC(0-inf) [14]: 440 ng·h/mL | clearance [15]: 38 mL/min/kg | Vd [16]: 5.4 L/kg | half-life [17]: 2.4 h | MRT [18]: 2.4 h | T1/2 [2]: 1.6 h | IC50 [1]: 47 nM
Compound: CCN(Cc1cc(C(F)(F)F)ccc1-c1nn(CC(=O)O)c2ccccc12)C(=O)C1CC1

IC50 [7]: 43 nM | pKa [3]: 2.4 | pKa [4]: 7.8 | T1/2 [2]: 1.1 h
Compound: CCN(Cc1cc(C(F)(F)F)ccc1-c1cn(CC(=O)O)c2ccncc12)C(=O)C1CC1
